20 compounds from patent publication EP4553077A1 (Kinoteck Therapeutics Co., Ltd, priority 2022, dated 2024) can be followed below.

Data set [1] concerns SNU16 cells. The experiment in a line: Proliferation inhibition, CCK-8 colorimetric method. In kind it is cell-based. As to the method:
(§1) CCK-8 (Bimake/B34304) colorimetric method was used to detect the in vitro proliferation inhibitory effect of compounds on suspended or adherent cells in this experiment. The specific experimental steps were as follows: • 1) Cell plating: SNU16 and A204 tumor cells (cells from Shanghai Institute of Organic Chemistry, Chinese Academy of Sciences) in the logarithmic growth phase were digested and centrifuged for trypan blue counting, and the cells were seeded into a transparent 96 well plate at a density of 4000 cells/100 µ 1/well. […] The test compound and control compound stock solution were diluted with the corresponding culture medium required for cell culture (with or without solvent DMSO) to obtain a series of working solutions, with concentrations of twice the final concentration. The solvent DMSO contents in each concentration group were consistent with that of the solvent control group. The final concentration of A204 cells started at 10 µM and was diluted twice.
(§2) Calculation of cell survival rate: Cell survival rate (%)=[(As-Ac)/(Ab-Ac)] × 100%] (As: experimental well; Ab: Solvent control well; Ac: Blank well).
For orientation: Formazan colour is commonly taken as a measure of viable cells.

Data set [2] deals with A204 cells. Described as above. Format: cell-based. Particulars: 72 h. As to the method: as §1, §2
The target in data set [3] is Ba/F3-TEL-FGFR2 (Homo sapiens, UniProt P21802+P41212). The experiment in a line: Cell viability (proliferation inhibition) of Ba/F3 cells, CellTiter Glo. Particulars: read-out: Ba/F3 cell FGFR2 (IC50 nM), 72 h. For orientation: In ATP-based viability assays light output follows the ATP content of the culture.
Data set [4] concerns the target Ba/F3-TEL-FGFR1 (Homo sapiens, UniProt P11362+P41212). Described as above. Particulars: read-out: Ba/F3 cell FGFR1 (IC50 nM), 72 h.
Data set [5] deals with Ba/F3-TEL-FGFR3 (Homo sapiens, UniProt P22607+P41212). Described as above. Particulars: read-out: Ba/F3 cell FGFR3 (IC50 nM), 72 h.
Data set [6] is described as follows: Pharmacokinetic test in rats. Format: in vivo, male SD rats. Particulars: rat, plasma, oral gavage administration, 10 mg/kg. The protocol:
Rat pharmacokinetic experiments were performed using male SD rats, 180-220g, provided by Beijing Vital River Laboratory Animal Technology Co., Ltd. 3 rats that were fasted overnight were taken, and administered orally by gavage (10 mg/kg). Blood samples were collected before administration, as well as 5, 15, 30 min and 1, 2, 4, 6, 8, 24 h after administration; another 3 rats were taken and administered intravenously (1 mg/kg), blood samples were collected before administration, as well as 5, 15, 30 min and 1, 2, 4, 6, 8, 24 h after administration. Blood sample was centrifuged at 6800g, 2-8 °C for 6 min, and plasma was collected, and stored at -80 °C. Plasma of each time point was taken, 10 times the amount of 50% methanol acetonitrile solution containing internal standard was added, and mixed by vortex for 5 min, centrifuged at 18000 rpm at 4 °C for 10 min, and the supernatant was taken directly for LC-MS/MS analysis. The main pharmacokinetic parameters were analyzed using WinNonlin8.2 software for non compartmental model analysis. Table 3: pharmacokinetic test in rats results of test compounds

Chain of Ba/F3-TEL-FGFR1 (P11362 478-767 limits assumed, one chain of several): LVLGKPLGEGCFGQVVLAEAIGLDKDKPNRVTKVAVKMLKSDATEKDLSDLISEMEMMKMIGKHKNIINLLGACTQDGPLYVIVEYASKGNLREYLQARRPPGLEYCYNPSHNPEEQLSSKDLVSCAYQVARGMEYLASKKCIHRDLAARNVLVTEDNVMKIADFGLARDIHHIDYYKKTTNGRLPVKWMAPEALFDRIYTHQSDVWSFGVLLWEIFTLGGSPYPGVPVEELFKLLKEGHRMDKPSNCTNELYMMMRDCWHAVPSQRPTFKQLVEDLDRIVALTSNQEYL
Chain of Ba/F3-TEL-FGFR2 (P21802 481-770 limits assumed, one chain of several): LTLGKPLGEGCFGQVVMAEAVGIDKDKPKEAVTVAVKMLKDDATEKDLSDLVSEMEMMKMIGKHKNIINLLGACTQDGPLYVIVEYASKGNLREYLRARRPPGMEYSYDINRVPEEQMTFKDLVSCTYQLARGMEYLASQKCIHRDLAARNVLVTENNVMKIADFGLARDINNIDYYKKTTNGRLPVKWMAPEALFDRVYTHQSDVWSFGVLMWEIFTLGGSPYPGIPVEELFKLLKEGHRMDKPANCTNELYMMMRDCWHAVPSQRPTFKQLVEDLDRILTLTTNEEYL
Chain of Ba/F3-TEL-FGFR3 (P22607 472-761 limits assumed, one chain of several): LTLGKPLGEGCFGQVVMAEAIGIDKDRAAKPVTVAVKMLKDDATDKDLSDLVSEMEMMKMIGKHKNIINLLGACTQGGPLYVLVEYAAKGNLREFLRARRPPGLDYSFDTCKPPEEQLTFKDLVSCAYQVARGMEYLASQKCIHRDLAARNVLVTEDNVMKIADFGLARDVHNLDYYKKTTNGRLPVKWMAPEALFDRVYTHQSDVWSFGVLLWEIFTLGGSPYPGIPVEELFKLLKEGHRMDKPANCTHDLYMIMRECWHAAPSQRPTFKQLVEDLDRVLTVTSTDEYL

As for `CCN1CCN(c2ccc(Nc3cc(N(C)C(=O)Nc4c(Cl)c(OC)cc(OC)c4Cl)ncn3)cc2)CC1` [BGJ398, reference compound], the IC50 in data set [1] (Homo sapiens, SNU-16, 72 h) was 4.3 nM; in data set [2] (Homo sapiens), 100 nM.
With `C=C(C)C(=O)Nc1ccc(-c2c(-c3ccc(N=S4(=O)CCCCC4)c(F)c3)c3c(N)ncnc3n2C)c(F)c1` [Compound 7], the results for the IC50 in data set [3], in data set [4] and in data set [5] were 2.4 nM, 627 nM and 545 nM, respectively.
For `C=C(C)C(=O)Nc1ccc(-c2c(-c3ccc(N=S4(=O)CCC4)cc3)c3c(N)ncnc3n2C)c(F)c1` [Compound 8], the IC50 in data set [3] was found to be 0.7 nM. The compound also had an IC50 in data set [1] (Homo sapiens, SNU-16, 72 h) of 1.34 nM. In data set [2] (Homo sapiens), this compound gave an IC50 of 618 nM. The IC50 in data set [4] turned out to be 600 nM. Moreover, in data set [6], the AUC(0-t) (in general, the area under the concentration-time curve up to a stated or last time point) was 630 ng·h/mL; the Cmax (in general, the maximum level reached in the sampled fluid or tissue) turned out to be 352 ng/mL; the Tmax (as a rule, the time at which the peak concentration occurs) amounted to 15 min; the half-life (commonly how long it takes for the measured level to halve) was 109 min.
`C=C(F)C(=O)Nc1ccc(-c2c(-c3ccc(N=S4(=O)CCCC4)c(F)c3)c3c(N)ncnc3n2C)cc1` [Compound 21, N-(4-(4-amino-5-(3-fluoro-4-((1-oxotetrahydro-1 λ^6-thiophene-1-ylidene)amino)phenyl) -7-methyl-7H-pyrrolo [2,3-d]pyrimidin-6-yl)phenyl) -2-fluoroacrylamide]: the IC50 stood at 0.8 nM in data set [3]; 1.72 nM in data set [1] (Homo sapiens, SNU-16, 72 h); 333 nM in data set [2] (Homo sapiens).
On to `C=C(C)C(=O)Nc1ccc(-c2c(-c3ccc(N=S4(=O)CCCC4)c(F)c3)c3c(N)ncnc3n2C)c(C)c1` [Compound 22, N-(4-(4-amino-5-(3-fluoro-4-((1-oxotetrahydro-1 λ^6-thiophene-1-ylidene)amino)phenyl) -7-methyl-7H-pyrrolo [2,3-d]pyrimidin-6-yl) -3-methylphenyl) methacrylamide], for which the IC50 amounted to 2.7 nM in data set [3]; 4.97 nM in data set [1] (Homo sapiens, SNU-16, 72 h); 1610 nM in data set [2] (Homo sapiens); 717 nM in data set [4].
On to `C=C(C)C(=O)Nc1ccc(-c2c(-c3ccc(N=S(=O)(N(C)C)C(F)(F)F)cc3)c3c(N)ncnc3n2C)c(F)c1` (stereo not drawn) [Compound 32], for which the IC50 in data set [3] was 0.4 nM; in data set [1] (72 h), 9.56 nM; in data set [2], 2250 nM.
Turning to `CC#CC(=O)Nc1ccc(-c2c(-c3ccc(N=S4(=O)CCCCC4)c(F)c3)c3c(N)ncnc3n2C)cc1` [Compound 35, N-(4-(4-amino-5-(3-fluoro-4-((1-oxotetrahydro-2H-1 λ^6-thiopyran-1-ylidene)amino)phenyl) -7-methyl-7H-pyrrolo [2,3-d]pyrimidin-6-yl)phenyl) but-2-ynamide], the IC50 in data set [3] is 4.4 nM; in data set [1] (Homo sapiens, SNU-16, 72 h) it was 4.91 nM; in data set [2] (Homo sapiens) it was 406 nM.
For `C=C(C)C(=O)Nc1ccc(-c2c(-c3ccc(N=S(=O)(N(C)C)C(F)(F)F)c(F)c3)c3c(N)ncnc3n2C)cc1` (stereo not drawn) [Compound 48], the IC50 in data set [3] is 0.9 nM. Besides, the IC50 in data set [4] is 625 nM. Further, the IC50 in data set [5] was 577 nM. Further, in data set [6], the AUC(0-t) was found to be 883 ng·h/mL, the Cmax was determined as 212 ng/mL, the Tmax was 49.8 min and the half-life was 206 min.
`C=C(F)C(=O)Nc1ccc(-c2c(-c3ccc(N=S4(=O)CCCCC4)cc3)c3c(N)ncnc3n2C)cc1` [Compound 68, N-(4-(4-amino-7-methyl-5-(4-((1-oxotetrahydro-2H-1 λ^6-thiopyran-1-ylidene)amino)phenyl)-7H-pyrrolo[2,3-d]pyrimidin-6-yl)phenyl)-2-fluoroacrylamide]: the IC50 in data set [3] is 0.5 nM; in data set [1] (Homo sapiens, SNU-16, 72 h), 1.65 nM; in data set [2] (Homo sapiens) it was 267 nM.
Regarding `C=C(C)C(=O)Nc1ccc(-c2c(-c3ccc(N=S4(=O)CCC4)c(F)c3)c3c(N)ncnc3n2C)c(Cl)c1` [Compound 74, N-(4-(4-amino-5-(3-fluoro-4-(1-oxo-1λ^6-thietan-1-imino)phenyl) -7-methyl-7H-pyrrolo[2,3-d]pyrimidin-6-yl)-3-chlorophenyl)methacrylamide], the IC50 in data set [3] came out at 0.5 nM; in data set [1] (Homo sapiens, SNU-16, 72 h), 1.19 nM; in data set [2] (Homo sapiens) it was 595 nM; in data set [4], 300 nM.
`C=C(C)C(=O)Nc1ccc(-c2c(-c3ccc(N=S4(=O)CCCC4)c(Cl)c3)c3c(N)ncnc3n2C)c(F)c1` [Compound 88, N-(4-(4-amino-5-(3-chloro-4-((1-oxidetetrahydro-1 λ^6-thiophene-1-ylidene)amino)phenyl) -7-methyl-7H-pyrrolo [2,3-d]pyrimidin-6-yl) -3-fluorophenyl) methacrylamide]: the results for the IC50 in data set [3], in data set [4] and in data set [5] were 1.5 nM, 561 nM and 216 nM, respectively.
Turning to `[2H]C([2H])([2H])n1c(-c2cc(C)c(NC(=O)C(=C)C)cc2Cl)c(-c2ccc(N=S3(=O)CCCC3)c(F)c2)c2c(N)ncnc21` [Compound 90, N-(4-(4-amino-5-(3-fluoro-4-((1-tetrahydro-1λ^6-thiophene-1-ylidene)amino)phenyl) -7-(methyl-d3) -7H-pyrrolo [2,3-d]pyrimidin-6-yl) -5-chloro-2-methylphenyl) methacrylamide], the IC50 in data set [3] came to 3.6 nM; in data set [5], 174 nM.
Turning to `[2H]C([2H])([2H])n1c(-c2ccc(NC(=O)C(=C)C)cc2F)c(-c2ccc(N=S3(=O)CCCC3)c(F)c2)c2c(N)ncnc21` [Compound 94], the IC50 in data set [3] came to 1.1 nM; in data set [4], 625 nM; in data set [5], 205 nM.
Turning to `[2H]C([2H])([2H])n1c(-c2ccc(NC(=O)C(=C)C)cc2F)c(-c2ccc(N=S3(=O)CCC3)c(F)c2)c2c(N)ncnc21` [Compound 97, N-(4-(4-amino-5-(3-fluoro-4-((1-oxo-1 λ^6-thiophene-1-ylidene)amino)phenyl) -7-(methyl-d3) -7H-pyrrole [2,3-d]pyrimidin-6-yl) -3-fluorophenyl) methacrylamide], the IC50 in data set [3] is 1.9 nM; in data set [1] (Homo sapiens, SNU-16, 72 h) it was 2.66 nM; in data set [2] (Homo sapiens), 764 nM; in data set [4] it was 480 nM.
On to `[2H]C([2H])([2H])n1c(-c2ccc(NC(=O)C(=C)C)cc2F)c(-c2ccc(N=S3(=O)C=CC=C3)cc2)c2c(N)ncnc21` [Compound 98, N-(4-(4-amino-7-(methyl-d3) -5-(4-((1-oxo-1 λ^6-thiophene-1-ylidene)amino)phenyl) -7H-pyrrolo [2,3-d]pyrimidin-6-yl) -3-fluorophenyl) methacrylamide], for which the IC50 in data set [3] is 0.6 nM; in data set [1] (Homo sapiens, SNU-16, 72 h), 1.81 nM; in data set [2] (Homo sapiens) it was 845 nM; in data set [4] it was 416 nM.
For `C=C(C)C(=O)Nc1ccc(-c2c(-c3ccc(N=S(=O)(CC)CC)c(F)c3)c3c(N)ncnc3n2C)c(F)c1` [Compound 100], the figures for the IC50 in data set [3], in data set [4] and in data set [5] were 1.9 nM, 823 nM and 414 nM, respectively.
Turning to `C=C(C)C(=O)Nc1ccc(-c2c(-c3ccc(N=S(=O)(CC)CC)cc3)c3c(N)ncnc3n2C)c(Cl)c1` [Compound 102], the IC50 in data set [3] is 0.6 nM; in data set [1] (Homo sapiens, SNU-16, 72 h) it was 2.63 nM; in data set [2] (Homo sapiens), 502 nM.
Take `C=C(C)C(=O)Nc1ccc(-c2c(-c3ccc(N=S4(=O)CCC4)c(Cl)c3)c3c(N)ncnc3n2C)c(F)c1` [Compound 104]: the IC50 in data set [3] stood at 0.9 nM; in data set [1] (Homo sapiens, SNU-16, 72 h), 5.51 nM; in data set [2] (Homo sapiens) it was 1020 nM; in data set [4], 640 nM.
In the case of `[2H]C([2H])([2H])n1c(-c2ccc(NC(=O)C(=C)C)cc2F)c(-c2ccc(N=S(=O)(CC)CC)cc2)c2c(N)ncnc21` [Compound 109], the IC50 was found to be 4.5 nM in data set [3]; 9.38 nM in data set [1] (Homo sapiens, SNU-16, 72 h); 1040 nM in data set [2] (Homo sapiens).
Take `C=C(C)C(=O)Nc1ccc(-c2c(-c3ccc(Oc4nccc(C)n4)c(F)c3)c3c(N)ncnc3n2C)cc1` [Control compound I, reference compound]: in data set [1] (Homo sapiens, SNU-16, 72 h), the IC50 was found to be 13.2 nM. Also, in data set [2] (Homo sapiens), the IC50 was determined as 3220 nM. Besides, in data set [6] (male, SD), the AUC(0-t) came out at 606 ng·h/mL, the Cmax stood at 141 ng/mL, the Tmax was found to be 40.2 min and the half-life was 51 min.
